# Measured values from ChEMBL document CHEMBL1649201, “VanB-type Enterococcus faecium clinical isolate successively inducibly resistant to, dependent on, and constitutively resistant to vancomycin” (2009).
# Experiments:
# [1] = target: T1, D,D-carboxypeptidase (Enterococcus faecium) (UniProt Q7BI95); test: Activity of D,D-carboxypeptidase in vancomycin-resistant and teicoplanin-sensitive VanB-type Enterococcus faecium BM4659 membrane fraction assessed as enzyme mediated D-Alanine release per mg protein at 8 ug/ml
# T1 sequence (whole entry): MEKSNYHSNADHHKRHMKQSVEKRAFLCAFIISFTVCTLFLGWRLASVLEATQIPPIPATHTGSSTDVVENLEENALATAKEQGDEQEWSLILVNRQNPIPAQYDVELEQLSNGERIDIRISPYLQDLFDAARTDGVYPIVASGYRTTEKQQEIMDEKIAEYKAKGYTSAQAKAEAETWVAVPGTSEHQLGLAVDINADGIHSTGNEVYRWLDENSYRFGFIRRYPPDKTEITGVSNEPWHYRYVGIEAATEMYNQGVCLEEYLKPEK
# [2] = target: T1, D,D-carboxypeptidase (Enterococcus faecium); test: Activity of D,D-carboxypeptidase in vancomycin-dependent VanB-type Enterococcus faecium BM4660 cytoplasmic fraction assessed as enzyme mediated D-Alanine release per mg protein at 8 ug/ml
# [3] = target: T1, D,D-carboxypeptidase (Enterococcus faecium); test: Activity of D,D-carboxypeptidase in vancomycin-dependent VanB-type Enterococcus faecium BM4660 membrane fraction assessed as enzyme mediated D-Alanine release per mg protein at 8 ug/ml
# [4] = target: T2, D,D-dipeptidase (Enterococcus faecium) (UniProt Q9EYV8); test: Activity of D,D-dipeptidase in vancomycin-resistant and teicoplanin-sensitive VanB-type Enterococcus faecium BM4659 assessed as enzyme mediated D-Alanine release per mg protein at 8 ug/ml
# T2 sequence (whole entry): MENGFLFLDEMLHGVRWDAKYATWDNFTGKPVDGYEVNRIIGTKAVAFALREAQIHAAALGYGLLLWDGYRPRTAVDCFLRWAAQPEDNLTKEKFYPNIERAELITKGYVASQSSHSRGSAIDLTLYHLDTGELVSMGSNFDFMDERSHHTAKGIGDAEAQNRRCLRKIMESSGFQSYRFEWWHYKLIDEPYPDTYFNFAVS
# Enterococcus faecium [5] = test: Antimicrobial activity against vancomycin-revertant and teicoplanin-sensitive VanB-type Enterococcus faecium BM4661; type: functional
# [6] = target: T1, D,D-carboxypeptidase (Enterococcus faecium); test: Activity of D,D-carboxypeptidase in vancomycin-revertant and teicoplanin-sensitive VanB-type Enterococcus faecium BM4661 membrane fraction assessed as enzyme mediated D-Alanine release per mg protein at 8 ug/ml
# [7] = target: T2, D,D-dipeptidase (Enterococcus faecium); test: Activity of D,D-dipeptidase in vancomycin-revertant and teicoplanin-sensitive VanB-type Enterococcus faecium BM4661 assessed as enzyme mediated D-Alanine release per mg protein at 8 ug/ml
# Enterococcus faecium [8] = test: Antimicrobial activity against vancomycin-resistant and teicoplanin-sensitive VanB-type Enterococcus faecium BM4659; type: functional
# [9] = target: T1, D,D-carboxypeptidase (Enterococcus faecium); test: Activity of D,D-carboxypeptidase in vancomycin-resistant and teicoplanin-sensitive VanB-type Enterococcus faecium BM4659 cytoplasmic fraction assessed as enzyme mediated D-Alanine release per mg protein at 8 ug/ml
# [10] = target: T2, D,D-dipeptidase (Enterococcus faecium); test: Activity of D,D-dipeptidase in vancomycin-dependent VanB-type Enterococcus faecium BM4660 assessed as enzyme mediated D-Alanine release per mg protein at 8 ug/ml
# [11] = target: T1, D,D-carboxypeptidase (Enterococcus faecium); test: Activity of D,D-carboxypeptidase in vancomycin-revertant and teicoplanin-sensitive VanB-type Enterococcus faecium BM4661 cytoplasmic fraction assessed as enzyme mediated D-Alanine release per mg protein at 8 ug/ml
# Enterococcus faecium [12] = test: Antimicrobial activity against vancomycin-dependent VanB-type Enterococcus faecium BM4660; type: functional
compound,measurement,setting,value
CN[C@H](CC(C)C)C(=O)N[C@H]1C(=O)N[C@@H](CC(N)=O)C(=O)N[C@H]2C(=O)N[C@H]3C(=O)N[C@H](C(=O)N[C@H](C(=O)O)c4cc(O)cc(O)c4-c4cc3ccc4O)[C@H](O)c3ccc(c(Cl)c3)Oc3cc2cc(c3O[C@@H]2O[C@H](CO)[C@@H](O)[C@H](O)[C@H]2O[C@H]2C[C@](C)(N)[C@H](O)[C@H](C)O2)Oc2ccc(cc2Cl)[C@H]1O [VANCOMYCIN],Activity,[1],115 nmol/min/mg
same,Activity,[2],5.3 nmol/min/mg
same,Activity,[3],30 nmol/min/mg
same,Activity,[4],255 nmol/min/mg
same,MIC,Enterococcus faecium [5],256 µg/mL
same,Activity,[6],27 nmol/min/mg
same,Activity,[7],128 nmol/min/mg
same,MIC,Enterococcus faecium [8],64 µg/mL
same,Activity,[9],13 nmol/min/mg
same,Activity,[10],99 nmol/min/mg
same,Activity,[11],4.3 nmol/min/mg
same,MIC,Enterococcus faecium [12],256 µg/mL
